Measurements from patent US10086335B2, “Composition and method for biofouling inhibition of membrane separation device” (Ecolab USA Inc., priority 2013, dated 2018).

Key:
[1] = Total chlorine and free chlorine concentration by DPD method; format: physicochemical; settings: for free chlorine (FRC) concentration: sulfamic acid:sodium hypochlorite 1.2:1, pH >12
Excerpt: The total chlorine concentration (amount) can be detected according to the following method. The combined chlorine can oxidize the iodide into iodine. The iodine and free chlorine can react with DPD (N,N-Diethyl-p-phenylenediamine) to form a red substance, and which can be used to represent the concentration of the total chlorine (using the absorbance obtained at 530 nm measurement to represent the concentration of total chlorine). The above free chlorine concentration (amount) may be determined by the following method. The free chlorine which may exist in the form of hypochlorous acid or ions of hypochlorite can react with DPD (N, N-Diethyl-p-phenylenediamine) indicator rapidly to form a pink-colored substance, and the strength of such color can be used to indicate the amount of free chlorine, for example the concentration of free chlorine is determined by the measurements of absorbance on 530 nm. The combined chlorine concentration in water is calculated by subtracting free chlorine concentration from total chlorine concentration (i.e., TRC-FRC). In the present invention, TRC and FRC are measured for example by HACH DR2800 spectrophotometer.
In order to further reduce the FRC, the second stabilizer ammonium sulfate was used in the present example. In the present example, 67 g sodium hypochlorite and 13 g sulfamic acid (sulfamic acid ≥99.5%, AR, Sinopharm Chemical Reagent Co. Ltd.) were first added to 20 g water. The molar ratio between sulfamic acid and sodium hypochlorite was 1.2 to 1. Then the pH was adjusted to more than 12 by sodium hydroxide. According to the addition amount of sodium hypochlorite, the different molar ratios of second stabilizer ammonium sulfates were added. After the solution was uniformly mixed, DPD and iodine were used to determine the TC concentration and DPD was used to determine the FRC concentration.
In the present example, the second stabilizer ammonium sulfate was used in dilute solution to research the reducing effect on FRC. In the present example, 67 g sodium hypochlorite and 13 g sulfamic acid (sulfamic acid ≥99.5%, AR, Sinopharm Chemical Reagent Co. Ltd.) were first added to 3020 g water. The molar ratio between sulfamic acid and sodium hypochlorite was 1.2 to 1. Comparing to the concentration of the sodium hypochlorite and sulfamic acid of the example 1, that of the example 2 was diluted to about 30 times. Then the pH was adjusted to more than 12 by sodium hydroxide. According to the addition amount of sodium hypochlorite, the different molar ratios of second stabilizer ammonium sulfates were added. After the solution was mixed uniformly, DPD and iodine were used to determine the TC concentration and DPD was used to determine the FRC concentration.

[2] = test system: floating bacteria in water; assay: Bactericidal effect on the bacteria in water (Total Bacteria Count); settings: raw water; total chlorine 2 ppm and 10 ppm; 3 hours and 24 hours; FIG. 3
Description: This example is mainly focused on using the present method or combination to inhibit the floating bacteria in water. The raw water without adding any biocides was used as the control group. The total chlorine concentration in water was controlled at 2 ppm and 10 ppm, separately. Sodium hypochlorite and two kinds of stabilizers were added to the raw water and sample obtained was used as the experimental group (dual stabilizers). Moreover, the group wherein only sodium hypochlorite was added was the control experimental group 1 (Cl2) and the group wherein sodium hypochlorite and one stabilizer were added to the raw water was the control experimental group 2 (single stabilizer). In the control experimental group 1 and 2, the total chlorine concentrations were controlled at 2 ppm and 10 ppm, separately. The addition method of the above substances and the substances used were identical to the examples 1 or 2. […] After placing the control group, the control experimental group 1, 2 and the experimental group for 3 hours and 24 hours, the number of the bacteria in the water of these samples were determined and compared. The bacterial number was indicated by the Total Bacteria Count (sometimes abbreviated as TBC in the following description), which was determined by referencing the method of 3M™ Petrifilm™ Aerobic Count Plates.

Row | Compound | free chlorine (FRC) concentration ([1]; concentrated solution, 0.3 moles second stabilizer per 1 mole sodium hypochlorite, reduced from 1200 ppm, FIG. 1) | effect on total chlorine ([1]; concentrated solution, 0.3 moles second stabilizer per 1 mole sodium hypochlorite, FIG. 1) | free chlorine (FRC) concentration ([1]; dilute solution, 0.4 moles second stabilizer per 1 mole sodium hypochlorite, reduced from about 50 ppm, FIG. 2) | effect on total chlorine amount ([1]; dilute solution, 0.4 moles second stabilizer per 1 mole sodium hypochlorite, FIG. 2) | bactericidal effect (Total Bacteria Count) [2]
1 | N.N.O=S(=O)(O)O [second stabilizer, ammonium sulfate] | about 40 ppm | without affecting the total chlorine | about 20 ppm | without affecting the total chlorine amount | 
2 | OCl [sodium hypochlorite] |  |  |  |  | strongest bactericidal effect
